Experimental data taken from ChEMBL document CHEMBL4619763 (J Nat Prod, 2020).
Activity calls are given as the source filed them. No cut-off for these calls is given here.

Columns and labels:
[1] = Toxicity in normotensive Wistar rat assessed as changes in plasma ALT level at 0.1 mg/kg, po administered for 7 days; assay type: organism-based; settings: in vivo, 168 h
[2] = system: Rattus norvegicus; test: Diuretic activity in normotensive Wistar rat assessed as urinary chloride excretion at 0.1 mg/kg, po administered via gavage after 8 hrs in presence of L-NAME (reference value: 135.10 to 143.70 mmol/L); assay type: functional
[3] = system: Rattus norvegicus; test: Diuretic activity in normotensive Wistar rat assessed as urinary calcium excretion at 0.1 mg/kg, po administered via gavage after 8 hrs in presence of amiloride (reference value: 5.93 to 6.87 mg/dl); assay type: functional
[4] = system: Rattus norvegicus; test: Diuretic activity in normotensive Wistar rat assessed as urine pH at 0.1 mg/kg, po administered via gavage after 8 hrs in presence of indomethacin (reference value: 6.14 to 6.21); assay type: functional
[5] = system: Rattus norvegicus; test: Diuretic activity in normotensive Wistar rat assessed as increase in urinary chloride excretion at 0.1 mg/kg, po administered via gavage for 7 days; assay type: functional, organism-based
[6] = Toxicity in normotensive Wistar rat assessed as changes in urea level in urine at 0.1 mg/kg, po administered for 7 days; assay type: organism-based; settings: in vivo, 168 h
[7] = system: Rattus norvegicus; test: Diuretic activity in normotensive Wistar rat assessed as increase in urinary sodium excretion at 0.1 mg/kg, po administered via gavage for 7 days; assay type: functional, organism-based
[8] = system: Rattus norvegicus; test: Diuretic activity in normotensive Wistar rat assessed as urinary sodium excretion at 0.1 mg/kg, po administered via gavage after 8 hrs in presence of hydrochlorothiazide (reference value: 61.82 to 80.81 mmol/L); assay type: functional
[9] = Toxicity in spontaneous hypertensive Wistar rat assessed as changes in plasma nitrite acid level at 0.1 mg/kg, po administered for 7 days; assay type: organism-based; settings: in vivo, 168 h
[10] = system: Rattus norvegicus; test: Diuretic activity in normotensive Wistar rat assessed as effect on urinary potassium excretion at 0.1 mg/kg, po administered via gavage for 7 days; assay type: ADME, organism-based; settings: in vivo, 168 h
[11] = system: Rattus norvegicus; test: Diuretic activity in normotensive Wistar rat assessed as urine conductivity at 0.1 mg/kg, po administered via gavage after 8 hrs (reference value: 19.54 +/- 0.98 mS/cm); assay type: functional
[12] = system: Rattus norvegicus; test: Diuretic activity in normotensive Wistar rat assessed as urine pH at 1 mg/kg, po administered via gavage after 8 hrs (reference value: 6.14 to 6.21); assay type: functional
[13] = Toxicity in spontaneous hypertensive Wistar rat assessed as changes in urea level in urine at 0.1 mg/kg, po administered for 7 days; assay type: organism-based; settings: in vivo, 168 h
[14] = system: Rattus norvegicus; test: Renal protective activity in spontaneous hypertensive Wistar rat assessed as reduction in hypertension-induced Bowman's capsule thickening at 0.1 mg/kg, po administered via gavage for 7 days by hematoxylin and eosin staining based microscopic analysis; assay type: functional, organism-based
[15] = system: Rattus norvegicus; test: Diuretic activity in normotensive Wistar rat assessed as urinary potassium excretion at 0.1 mg/kg, po administered via gavage after 8 hrs in presence of L-NAME (reference value: 22.39 to 24.21 mmol/L); assay type: ADME, organism-based; settings: in vivo
[16] = system: Rattus norvegicus; test: Diuretic activity in normotensive Wistar rat assessed as urine conductivity at 0.1 mg/kg, po administered via gavage after 8 hrs in presence of indomethacin (reference value: 19.54 +/- 0.98 mS/cm); assay type: functional
[17] = system: Rattus norvegicus; test: Diuretic activity in normotensive Wistar rat assessed as urine conductivity at 0.1 mg/kg, po administered via gavage after 8 hrs in presence of L-NAME (reference value: 19.54 +/- 0.98 mS/cm); assay type: functional
[18] = system: Rattus norvegicus; test: Diuretic activity in normotensive Wistar rat assessed as urinary sodium excretion at 0.1 mg/kg, po administered via gavage after 8 hrs in presence of atropine (reference value: 61.82 to 80.81 mmol/L); assay type: functional
[19] = system: Rattus norvegicus; test: Diuretic activity in normotensive Wistar rat assessed as urine conductivity at 0.1 mg/kg, po administered via gavage after 8 hrs in presence of amiloride (reference value: 19.54 +/- 0.98 mS/cm); assay type: functional
[20] = system: Rattus norvegicus; test: Diuretic activity in normotensive Wistar rat assessed as urine conductivity at 1 mg/kg, po administered via gavage after 8 hrs (reference value: 19.54 +/- 0.98 mS/cm); assay type: functional
[21] = system: Rattus norvegicus; test: Diuretic activity in spontaneous hypertensive Wistar rat assessed as decrease in urinary calcium excretion at 0.1 mg/kg, po administered via gavage for 7 days; assay type: functional, organism-based
[22] = system: Rattus norvegicus; test: Diuretic activity in normotensive Wistar rat assessed as decrease in urinary calcium excretion at 0.1 mg/kg, po administered via gavage for 7 days; assay type: functional, organism-based
[23] = system: Rattus norvegicus; test: Diuretic activity in normotensive Wistar rat assessed as urinary chloride excretion at 0.1 mg/kg, po administered via gavage after 8 hrs in presence of amiloride (reference value: 135.10 to 143.70 mmol/L); assay type: functional
[24] = Toxicity in spontaneous hypertensive Wistar rat assessed as changes in plasma uric acid level at 0.1 mg/kg, po administered for 7 days; assay type: organism-based; settings: in vivo, 168 h
[25] = system: Rattus norvegicus; test: Diuretic activity in normotensive Wistar rat assessed as urinary potassium excretion at 0.01 mg/kg, ip […] after 8 hrs (reference value: 22.33 +/- 2.81 mmol/L); assay type: ADME, organism-based; settings: in vivo
[26] = system: Rattus norvegicus; test: Diuretic activity in normotensive Wistar rat assessed as urinary chloride excretion at 0.1 mg/kg, po administered via gavage after 8 hrs in presence of furosemide (reference value: 135.10 to 143.70 mmol/L); assay type: functional
[27] = system: Rattus norvegicus; test: Diuretic activity in normotensive Wistar rat assessed as urine pH at 0.1 mg/kg, po administered via gavage after 8 hrs in presence of atropine (reference value: 6.14 to 6.21); assay type: functional
[28] = system: Rattus norvegicus; test: Diuretic activity in normotensive Wistar rat assessed as urine conductivity at 1 mg/kg, ip after 8 hrs (reference value: 24.87 +/- 0.54 mS/cm); assay type: functional
[29] = system: Rattus norvegicus; test: Diuretic activity in normotensive Wistar rat assessed as urinary sodium excretion at 0.1 mg/kg, po administered via gavage after 8 hrs in presence of indomethacin (reference value: 61.82 to 80.81 mmol/L); assay type: functional
[30] = system: Rattus norvegicus; test: Diuretic activity in normotensive Wistar rat assessed as urine conductivity at 0.1 mg/kg, ip after 8 hrs (reference value: 24.87 +/- 0.54 mS/cm); assay type: functional
[31] = system: Rattus norvegicus; test: Diuretic activity in normotensive Wistar rat assessed as increase in urine volume excretion at 1 mg/kg, ip a after 6 hr; assay type: functional, organism-based
[32] = system: Rattus norvegicus; test: Diuretic activity in normotensive Wistar rat assessed as urine pH at 0.1 mg/kg, po administered via gavage after 8 hrs in presence of furosemide (reference value: 6.14 to 6.21); assay type: functional
[33] = system: Rattus norvegicus; test: Diuretic activity in normotensive Wistar rat assessed as urine pH at 0.01 mg/kg, ip after 8 hrs (reference value: 6.05 +/- 0.22); assay type: functional
[34] = Toxicity in spontaneous hypertensive Wistar rat assessed as changes in plasma chloride level at 0.1 mg/kg, po administered for 7 days; assay type: organism-based; settings: in vivo, 168 h
[35] = system: Rattus norvegicus; test: Diuretic activity in normotensive Wistar rat assessed as urinary calcium excretion at 0.1 mg/kg, […] administered via gavage after 8 hrs (reference value: 5.28 +/- 0.09 mg/dl); assay type: functional
[36] = Toxicity in normotensive Wistar rat assessed as changes in plasma calcium level at 0.1 mg/kg, po administered for 7 days; assay type: organism-based; settings: in vivo, 168 h
[37] = Toxicity in normotensive Wistar rat assessed as changes in urinary creatinine at 0.1 mg/kg, po administered for 7 days; assay type: organism-based; settings: in vivo, 168 h

Activity [15]: 14.84 mmol/L
Activity [25]: 15.61 mmol/L
SMILES: C[C@@H]1O[C@@H](Oc2c(-c3ccc(O)cc3)oc3cc(O)cc(O)c3c2=O)[C@H](O)[C@H](O)[C@H]1O [AFZELIN]
Activity [1]: Non-Toxic
Activity [2]: 336.1 mmol/L
Activity [3]: 4.74 mg/dL
pH [4]: 5.94
Activity [5]: Active
Activity [6]: Non-Toxic
Activity [7]: Active
Activity [8]: 113.3 mmol/L
Activity [9]: Non-Toxic
Activity [10]: Non-Toxic
Activity [11]: 17.05 - 18.31 mS/cm
pH [12]: 6.29
Activity [13]: Non-Toxic
Activity [14]: Active
Activity [16]: 19.34 mS/cm
Activity [17]: 15.97 mS/cm
Activity [18]: 57.23 mmol/L
Activity [19]: 15.25 mS/cm
Activity [20]: 17.48 mS/cm
Activity [21]: Active
Activity [22]: Active
Activity [23]: 161.1 mmol/L
Activity [24]: Non-Toxic
Activity [26]: 154.7 mmol/L
pH [27]: 6.14
Activity [28]: 24.92 mS/cm
Activity [29]: 81.55 mmol/L
Activity [30]: 24.35 mS/cm
Activity [31]: Active
pH [32]: 6.25
pH [33]: 5.82
Activity [34]: Non-Toxic
Activity [35]: 5.51 mg/dL
Activity [36]: Non-Toxic
Activity [37]: Non-Toxic
